According to the supplement of paper PMC10307832:

Columns and labels:
Experiment in all cases: relative viability (nuclei count vs DMSO), 5 days (fraction); higher = more cells survive
[1] = compound: CC(C)N(CCCNC(=O)Nc1ccc(C(C)(C)C)cc1)C[C@H]1O[C@@H](n2ccc3c(N)ncnc32)[C@H](O)[C@@H]1O + O=C(CCCCCCC(=O)Nc1ccccc1)NO [Vorinostat] (partner 1 µM)
In short: (§1)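 Relative viability divides the nuclei count in treated wells by that in vehicle wells. Lung cancer cell lines were seeded in 1536-well plates, dosed by pin tool the next day, and fixed and stained after 5 days in one step with final 0.05% Triton X-100, 1% formaldehyde and 1 ug/ml Hoechst. Dosing was a single drug or a fixed anchor-drug dose plus five library-drug doses (not always all listed) in √10 steps, and values are medians of duplicate plates imaged at 4×.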

Shikonin + Palbociclib = compound: CC(C)=CC[C@@H](O)C1=CC(=O)c2c(O)ccc(O)c2C1=O [Shikonin] + CC(=O)c1c(C)c2cnc(Nc3ccc(N4CCNCC4)cn3)nc2n(C2CCCC2)c1=O [Palbociclib] (partner 0.5 µM)
In short: as §1

[2] = compound: CC(C)N(CCCNC(=O)Nc1ccc(C(C)(C)C)cc1)C[C@H]1O[C@@H](n2ccc3c(N)ncnc32)[C@H](O)[C@@H]1O + CC(C)C[C@H](NC(=O)[C@H](Cc1ccccc1)NC(=O)c1cnccn1)B(O)O [Bortezomib] (partner 0.002 µM)
In short: as §1

Shikonin + Crizotinib = compound: CC(C)=CC[C@@H](O)C1=CC(=O)c2c(O)ccc(O)c2C1=O [Shikonin] + C[C@@H](Oc1cc(-c2cnn(C3CCNCC3)c2)cnc1N)c1c(Cl)ccc(F)c1Cl [Crizotinib] (partner 1 µM)
In short: as §1

Row | Cell Line | relative viability ([1]; first compound 0.08 µM) | relative viability ([1]; first compound 0.253 µM) | relative viability ([1]; first compound 0.8 µM) | relative viability ([1]; first compound 2.53 µM) | relative viability ([1]; first compound 8 µM) | relative viability (Shikonin + Palbociclib; first compound 0.01 µM) | relative viability (Shikonin + Palbociclib; first compound 0.1 µM) | relative viability (Shikonin + Palbociclib; first compound 0.3162 µM) | relative viability (Shikonin + Palbociclib; first compound 1 µM) | relative viability ([2]; first compound 0.08 µM) | relative viability ([2]; first compound 0.253 µM) | relative viability ([2]; first compound 0.8 µM) | relative viability ([2]; first compound 2.53 µM) | relative viability ([2]; first compound 8 µM) | relative viability (Shikonin + Crizotinib; first compound 0.01 µM) | relative viability (Shikonin + Crizotinib; first compound 0.1 µM) | relative viability (Shikonin + Crizotinib; first compound 0.3162 µM) | relative viability (Shikonin + Crizotinib; first compound 1 µM)
1 | NCI-H2087 | 0.681 | 0.732 | 0.929 | 0.668 | 0.512 | 0.235 | 0.234 | 0.219 | 0.256 | 0.861 | 0.841 | 0.25 | 0.99 | 0.857 | 1.07 | 0.781 | 0.923 | 0.824
2 | NCI-H2126 | 0.672 | 0.702 | 0.825 | 0.721 | 0.711 | 0.362 | 0.408 | 0.379 | 0.349 | 1.03 | 1.12 | 1.14 | 1.08 | 1.05 | 1.08 | 1.21 | 1.1 | 1.04
3 | NCI-H2228 | 0.593 | 0.703 | 0.543 | 0.556 | 0.702 | 0.812 | 0.939 | 0.754 | 0.729 | 0.788 |  | 0.377 | 0.825 | 1.19 | 0.448 | 0.532 | 0.414 | 0.421
4 | NCI-H2347 | 0.54 | 0.537 | 0.458 | 0.608 | 0.546 | 0.432 | 0.424 | 0.414 | 0.397 | 1.14 | 0.871 | 0.534 | 0.924 | 1 | 0.69 | 0.0168 | 0.795 | 0.715
5 | NCI-H2405 | 1.06 | 0.969 | 0.928 | 1.07 | 0.92 | 0.527 | 0.569 | 0.558 | 0.509 | 0.986 | 0.989 | 0.918 | 0.994 | 0.819 | 0.854 | 0.819 | 0.935 | 0.852
